The record followed here is patent publication US12723261B2, “Process for producing a plurality of Neddylation site modified AAV2 vectors” (INDIAN INSTITUTE OF […], priority 2018, dated 2026).

Structures are written as SMILES.

This assay relates to HeLa cells. Nature of the assay: In vitro drug assay: scAAV2-EGFP transduction after pre-treatment with Neddylation inhibitor. The class given is cell-based. To be noted: versus control cells. As for the experimental part: Approximately 3×10^4 HeLa cells were seeded in 24 well plate and incubated for 12 hours in Iscove's-modified Dulbecco's medium (IMDM) with 10% fetal bovine serum in humidified conditions and 5% CO2. Cells were either mock treated or treated with a Neddylation inhibitor, MLN4924 (Calbiochem, Merck, Kenilworth, USA) at a concentration of 1 μM and incubated at 37° C. for 3 hours. After incubation, cells were infected with scAAV2-EGFP vectors at a multiplicity of infection (MOI) of 5000 for 3 hours in IMDM at 37° C. Forty-eight hours later, the transgene (GFP) expression was quantified by flow cytometry (BDaccuri, BD Biosciences, Franklin Lakes, USA).
To determine the role of cellular Neddylation during AAV2 infection, a small molecular inhibitor of Neddylation being used herein, MLN4924. The MLN4924 prevents the formation of the NEDD8 and Neddylation activating enzyme (NAE1) protein complex. The HeLa cells were pre-treated for three hours, after which the HeLa cells were infected with scAAV2-EGFP. […] Further studies such as specific targeting of Neddylation pathway genes by RNA interference are warranted to understand the mechanism involved in this process. […] Forty-eight hours later, the transgene (GFP) expression was quantified by flow cytometry. […]

Take `NS(=O)(=O)OC[C@@H]1C[C@@H](n2ccc3c(N[C@H]4CCc5ccccc54)ncnc32)C[C@@H]1O` [MLN4924]: the “improvement of AAV transduction by Neddylation inhibition” value was 50%.
